Here are results for three molecules from ChEMBL document CHEMBL3352116, “Discovery heralds new approach to the treatment of cystic fibrosis” (J Med Chem, 2014).

For series [1], the target named is Cystic fibrosis transmembrane conductance regulator (Homo sapiens, UniProt P13569). In words: Corrector activity at CFTR mutant (unknown origin) by phenotypic screening assay.
The target of series [2] is Cystic fibrosis transmembrane conductance regulator (Homo sapiens, UniProt P13569, F508DEL/G551D). Description: […] activity at human bronchial epithelium CFTR F508del and G551D mutant assessed as increase in channel gating.
The nature of series [3]: Half life in rat. Type of series: ADME, organism-based. The following applies: in vivo.
Series [4] in a line: Oral bioavailability in rat. Format: ADME, organism-based. As to conditions: in vivo; call rule not given here.
A short description of series [5]: Inhibition of CYP450 (unknown origin). Format: ADME. The following applies: human.

SMILES strings stand for the structures.

Sequence of Cystic fibrosis transmembrane conductance regulator (Homo sapiens, UniProt P13569) (P13569 whole entry, looked up, stated change not applied): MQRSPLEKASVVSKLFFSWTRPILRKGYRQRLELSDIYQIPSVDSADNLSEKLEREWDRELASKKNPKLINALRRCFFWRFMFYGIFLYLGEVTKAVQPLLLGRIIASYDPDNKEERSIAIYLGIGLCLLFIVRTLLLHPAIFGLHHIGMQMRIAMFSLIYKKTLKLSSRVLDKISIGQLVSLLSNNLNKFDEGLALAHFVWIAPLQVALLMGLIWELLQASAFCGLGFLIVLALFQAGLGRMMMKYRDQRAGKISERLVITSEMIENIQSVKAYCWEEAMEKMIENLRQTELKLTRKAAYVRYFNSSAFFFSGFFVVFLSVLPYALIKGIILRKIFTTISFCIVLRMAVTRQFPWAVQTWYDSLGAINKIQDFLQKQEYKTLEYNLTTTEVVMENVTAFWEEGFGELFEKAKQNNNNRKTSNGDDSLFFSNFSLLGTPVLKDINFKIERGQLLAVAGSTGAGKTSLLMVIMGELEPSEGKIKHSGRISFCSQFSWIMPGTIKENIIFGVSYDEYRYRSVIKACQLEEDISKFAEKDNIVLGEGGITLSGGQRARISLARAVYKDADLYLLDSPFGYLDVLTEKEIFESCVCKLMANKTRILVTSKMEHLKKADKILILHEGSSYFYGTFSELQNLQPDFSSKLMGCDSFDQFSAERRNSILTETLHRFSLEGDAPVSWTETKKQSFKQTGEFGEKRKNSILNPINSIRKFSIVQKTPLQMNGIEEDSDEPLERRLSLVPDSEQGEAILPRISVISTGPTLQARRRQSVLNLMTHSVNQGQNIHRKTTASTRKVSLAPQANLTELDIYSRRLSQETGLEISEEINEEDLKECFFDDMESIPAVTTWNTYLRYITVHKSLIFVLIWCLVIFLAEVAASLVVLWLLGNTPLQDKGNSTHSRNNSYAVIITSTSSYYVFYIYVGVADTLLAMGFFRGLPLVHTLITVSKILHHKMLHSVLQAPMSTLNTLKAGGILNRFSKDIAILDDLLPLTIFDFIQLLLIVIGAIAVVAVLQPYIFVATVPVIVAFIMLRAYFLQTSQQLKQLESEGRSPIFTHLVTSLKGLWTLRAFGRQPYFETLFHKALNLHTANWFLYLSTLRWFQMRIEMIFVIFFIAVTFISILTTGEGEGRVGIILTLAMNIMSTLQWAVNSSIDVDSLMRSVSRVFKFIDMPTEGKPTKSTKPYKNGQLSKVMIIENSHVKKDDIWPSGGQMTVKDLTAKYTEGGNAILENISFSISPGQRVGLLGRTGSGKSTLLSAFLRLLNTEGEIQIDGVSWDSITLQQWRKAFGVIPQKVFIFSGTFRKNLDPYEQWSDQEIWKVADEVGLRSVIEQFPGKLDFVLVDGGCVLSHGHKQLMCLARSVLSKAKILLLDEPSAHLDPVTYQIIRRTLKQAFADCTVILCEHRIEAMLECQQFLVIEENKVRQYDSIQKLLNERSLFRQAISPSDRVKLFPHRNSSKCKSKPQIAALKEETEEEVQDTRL
Sequence of Cystic fibrosis transmembrane conductance regulator (Homo sapiens, UniProt P13569, F508DEL/G551D) (P13569 as listed by the source): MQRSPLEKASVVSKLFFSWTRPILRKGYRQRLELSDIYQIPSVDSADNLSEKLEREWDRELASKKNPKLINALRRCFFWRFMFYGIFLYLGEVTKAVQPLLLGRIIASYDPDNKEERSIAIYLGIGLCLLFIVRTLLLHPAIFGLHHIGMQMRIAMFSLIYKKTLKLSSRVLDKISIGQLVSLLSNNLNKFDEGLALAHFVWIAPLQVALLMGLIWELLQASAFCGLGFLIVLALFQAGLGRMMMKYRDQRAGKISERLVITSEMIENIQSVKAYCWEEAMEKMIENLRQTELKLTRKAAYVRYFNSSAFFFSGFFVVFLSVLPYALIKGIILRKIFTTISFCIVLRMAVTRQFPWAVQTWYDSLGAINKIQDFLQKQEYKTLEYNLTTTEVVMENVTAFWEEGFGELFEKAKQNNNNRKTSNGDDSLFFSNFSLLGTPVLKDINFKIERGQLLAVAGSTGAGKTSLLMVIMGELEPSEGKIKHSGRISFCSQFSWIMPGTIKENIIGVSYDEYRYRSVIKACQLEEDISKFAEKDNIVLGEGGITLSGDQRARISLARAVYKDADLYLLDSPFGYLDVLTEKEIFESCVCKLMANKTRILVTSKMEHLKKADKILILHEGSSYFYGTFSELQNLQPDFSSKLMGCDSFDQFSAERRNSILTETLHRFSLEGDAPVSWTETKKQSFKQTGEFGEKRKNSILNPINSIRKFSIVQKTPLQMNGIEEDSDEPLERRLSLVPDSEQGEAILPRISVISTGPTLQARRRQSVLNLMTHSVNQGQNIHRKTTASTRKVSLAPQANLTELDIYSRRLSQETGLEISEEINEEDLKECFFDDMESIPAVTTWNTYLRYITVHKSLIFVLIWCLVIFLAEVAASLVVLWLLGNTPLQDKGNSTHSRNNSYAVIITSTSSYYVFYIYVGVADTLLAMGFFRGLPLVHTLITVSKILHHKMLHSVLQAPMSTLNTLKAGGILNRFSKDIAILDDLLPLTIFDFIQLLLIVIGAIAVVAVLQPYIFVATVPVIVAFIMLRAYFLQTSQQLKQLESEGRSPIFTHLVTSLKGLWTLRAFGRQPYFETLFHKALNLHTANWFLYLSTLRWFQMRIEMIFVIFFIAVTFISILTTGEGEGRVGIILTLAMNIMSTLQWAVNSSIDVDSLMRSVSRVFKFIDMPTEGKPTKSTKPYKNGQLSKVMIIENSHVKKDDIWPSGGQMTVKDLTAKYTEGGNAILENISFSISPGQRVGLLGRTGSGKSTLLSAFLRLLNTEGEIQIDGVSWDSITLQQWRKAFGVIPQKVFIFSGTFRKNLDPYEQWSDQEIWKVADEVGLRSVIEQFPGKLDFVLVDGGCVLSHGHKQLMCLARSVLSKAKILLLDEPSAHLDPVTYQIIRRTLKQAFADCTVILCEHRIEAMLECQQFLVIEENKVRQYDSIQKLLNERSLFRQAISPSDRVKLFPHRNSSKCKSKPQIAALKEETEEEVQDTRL

In turn, `O=C(c1c[nH]c2ccccc2c1=O)N(Cc1ccccc1)Cc1ccccc1` had an EC50 in series [1] of 2100 nM.
On the same count and under the same terms, to `O=C(Nc1ccc2cc[nH]c2c1)c1c[nH]c2ccccc2c1=O` belongs 100 nM.
With `CC(C)(C)c1cc(C(C)(C)C)c(NC(=O)c2c[nH]c3ccccc3c2=O)cc1O` [IVACAFTOR], the results for the EC50 in series [2] and in series [1] were 236 nM and 3 nM, respectively. In addition, the half-life in series [3] is 9.5 h. This molecule also returned a bioavailability in series [4] of 55%. Moreover, in series [5], the “inhibition (INH)” value is on record as “Not Active”.

The EC50 is the concentration that produces a half-maximal response. One may read the half-life as how long it takes for the measured level to halve. A higher half-life goes with slow loss. Usually bioavailability stands for dose-corrected exposure relative to a reference, in per cent.
